Test results reported in ChEMBL document CHEMBL1909046, “DrugMatrix in vitro pharmacology data”.

Legend:
[1] = molecular target: Tyrosine-protein kinase Lck (Homo sapiens, UniProt P06239); assay: DRUGMATRIX: Protein Tyrosine Kinase, LCK enzyme inhibition (substrate: Poly(Glu:Tyr)); type: cell-based, Insect cells; details: insect cells; Not Active = under 50% inhibition at 10 µM
[2] = molecular target: Receptor tyrosine-protein kinase erbB-2 (Homo sapiens, UniProt P04626); assay: biochemical; type: cell-based, Insect cells; details: insect cells;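 note: inhibition of HER2 kinase enzyme activity, measured with Poly(Glu:Tyr) as the phosphorylation substrate; in other assays of this panel Not Active means under 50% inhibition at 10 µM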
Receptor tyrosine-protein kinase erbB-2, sequence (P04626 whole entry): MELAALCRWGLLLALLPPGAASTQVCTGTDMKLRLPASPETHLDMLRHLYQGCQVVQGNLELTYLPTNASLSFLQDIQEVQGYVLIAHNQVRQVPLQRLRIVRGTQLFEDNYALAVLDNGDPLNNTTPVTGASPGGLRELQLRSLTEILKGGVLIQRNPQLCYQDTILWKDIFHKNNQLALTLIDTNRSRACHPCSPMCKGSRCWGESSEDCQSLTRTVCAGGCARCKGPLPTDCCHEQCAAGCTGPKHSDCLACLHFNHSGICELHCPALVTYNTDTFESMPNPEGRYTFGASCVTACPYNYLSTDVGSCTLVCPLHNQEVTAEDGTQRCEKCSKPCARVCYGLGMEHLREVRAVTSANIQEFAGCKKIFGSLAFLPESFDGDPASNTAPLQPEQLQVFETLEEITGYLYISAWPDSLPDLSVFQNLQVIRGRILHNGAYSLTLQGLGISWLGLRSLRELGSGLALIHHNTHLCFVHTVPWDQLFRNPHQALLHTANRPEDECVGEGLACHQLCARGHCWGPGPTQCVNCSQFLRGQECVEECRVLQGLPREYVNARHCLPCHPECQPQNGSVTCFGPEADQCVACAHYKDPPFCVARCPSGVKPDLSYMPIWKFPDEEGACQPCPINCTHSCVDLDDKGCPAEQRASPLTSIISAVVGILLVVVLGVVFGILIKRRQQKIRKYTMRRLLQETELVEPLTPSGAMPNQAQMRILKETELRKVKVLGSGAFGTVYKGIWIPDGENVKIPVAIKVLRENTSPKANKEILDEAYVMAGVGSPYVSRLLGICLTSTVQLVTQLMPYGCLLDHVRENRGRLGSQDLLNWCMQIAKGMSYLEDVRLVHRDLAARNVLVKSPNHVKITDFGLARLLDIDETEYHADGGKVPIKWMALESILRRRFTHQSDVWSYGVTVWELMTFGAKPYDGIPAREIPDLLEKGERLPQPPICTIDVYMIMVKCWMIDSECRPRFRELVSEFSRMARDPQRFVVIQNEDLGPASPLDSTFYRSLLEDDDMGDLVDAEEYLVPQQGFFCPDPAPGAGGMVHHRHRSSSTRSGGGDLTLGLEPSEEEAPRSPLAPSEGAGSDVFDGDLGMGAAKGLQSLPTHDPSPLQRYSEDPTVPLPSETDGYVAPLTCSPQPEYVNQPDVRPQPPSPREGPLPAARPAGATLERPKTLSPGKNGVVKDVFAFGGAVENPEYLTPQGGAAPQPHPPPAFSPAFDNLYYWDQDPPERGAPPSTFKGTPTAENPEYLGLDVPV

[3] = molecular target: T1, 3-hydroxy-3-methylglutaryl-coenzyme A reductase (Homo sapiens, UniProt P04035); set-up: species or system Escherichia coli;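 note: enzyme inhibition assay of HMG-CoA reductase using radiolabeled [14C]HMG-CoA as substrate; in other assays of this panel Not Active means under 50% inhibition at 10 µM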
T1 sequence (P04035 whole entry): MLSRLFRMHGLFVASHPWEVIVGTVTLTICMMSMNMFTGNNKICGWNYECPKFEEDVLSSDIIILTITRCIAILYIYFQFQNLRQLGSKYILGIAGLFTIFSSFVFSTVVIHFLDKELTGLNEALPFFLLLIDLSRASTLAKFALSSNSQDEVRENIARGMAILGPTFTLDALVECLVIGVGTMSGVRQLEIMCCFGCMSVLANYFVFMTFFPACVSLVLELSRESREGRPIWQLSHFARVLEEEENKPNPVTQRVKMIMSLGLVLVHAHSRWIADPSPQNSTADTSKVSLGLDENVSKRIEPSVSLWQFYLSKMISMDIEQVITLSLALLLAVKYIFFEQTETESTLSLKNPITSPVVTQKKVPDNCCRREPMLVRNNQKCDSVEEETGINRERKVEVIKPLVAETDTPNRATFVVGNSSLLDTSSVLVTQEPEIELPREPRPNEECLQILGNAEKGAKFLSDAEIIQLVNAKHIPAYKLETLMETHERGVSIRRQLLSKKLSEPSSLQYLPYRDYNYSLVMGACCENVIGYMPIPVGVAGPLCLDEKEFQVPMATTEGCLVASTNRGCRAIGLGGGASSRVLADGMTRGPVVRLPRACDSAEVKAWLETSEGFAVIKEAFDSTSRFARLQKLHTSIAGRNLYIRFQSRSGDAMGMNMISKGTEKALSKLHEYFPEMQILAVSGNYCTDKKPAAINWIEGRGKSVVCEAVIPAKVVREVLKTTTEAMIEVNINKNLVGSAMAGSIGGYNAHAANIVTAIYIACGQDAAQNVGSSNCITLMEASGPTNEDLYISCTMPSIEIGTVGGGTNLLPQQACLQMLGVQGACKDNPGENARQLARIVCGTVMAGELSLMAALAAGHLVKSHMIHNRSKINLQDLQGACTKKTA

[4] = molecular target: Sodium-dependent dopamine transporter (Homo sapiens, UniProt Q01959); assay: DRUGMATRIX: Dopamine Transporter radioligand binding (ligand: [125I] RTI-55); type: cell membranes, CHO-K1, Membrane; details: cho-k1; Not Active = under 50% inhibition at 10 µM
Sodium-dependent dopamine transporter, sequence (Q01959 whole entry): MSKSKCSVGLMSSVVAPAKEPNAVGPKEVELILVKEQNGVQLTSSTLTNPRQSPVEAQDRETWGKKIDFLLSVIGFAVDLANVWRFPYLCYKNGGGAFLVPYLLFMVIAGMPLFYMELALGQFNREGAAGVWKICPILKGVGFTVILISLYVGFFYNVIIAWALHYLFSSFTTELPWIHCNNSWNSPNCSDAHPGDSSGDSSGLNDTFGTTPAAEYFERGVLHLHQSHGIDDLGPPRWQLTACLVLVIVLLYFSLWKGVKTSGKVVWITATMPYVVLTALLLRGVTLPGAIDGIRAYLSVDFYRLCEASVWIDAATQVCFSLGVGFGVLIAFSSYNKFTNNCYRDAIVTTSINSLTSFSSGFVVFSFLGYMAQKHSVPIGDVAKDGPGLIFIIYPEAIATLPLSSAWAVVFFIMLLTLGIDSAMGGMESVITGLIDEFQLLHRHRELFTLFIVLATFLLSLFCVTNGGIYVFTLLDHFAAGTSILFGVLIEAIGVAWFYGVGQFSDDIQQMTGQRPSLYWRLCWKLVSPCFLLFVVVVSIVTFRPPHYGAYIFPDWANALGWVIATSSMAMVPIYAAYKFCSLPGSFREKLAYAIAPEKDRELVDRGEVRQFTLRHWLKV

[5] = molecular target: T2, Alpha-1D adrenergic receptor (Homo sapiens, UniProt P25100); type: cell membranes, HEK293, Membrane; details: for Ki: read-out: Ki; for all read-outs here: in other assays of this panel Not Active means under 50% inhibition at 10 µM
T2 sequence (P25100 whole entry): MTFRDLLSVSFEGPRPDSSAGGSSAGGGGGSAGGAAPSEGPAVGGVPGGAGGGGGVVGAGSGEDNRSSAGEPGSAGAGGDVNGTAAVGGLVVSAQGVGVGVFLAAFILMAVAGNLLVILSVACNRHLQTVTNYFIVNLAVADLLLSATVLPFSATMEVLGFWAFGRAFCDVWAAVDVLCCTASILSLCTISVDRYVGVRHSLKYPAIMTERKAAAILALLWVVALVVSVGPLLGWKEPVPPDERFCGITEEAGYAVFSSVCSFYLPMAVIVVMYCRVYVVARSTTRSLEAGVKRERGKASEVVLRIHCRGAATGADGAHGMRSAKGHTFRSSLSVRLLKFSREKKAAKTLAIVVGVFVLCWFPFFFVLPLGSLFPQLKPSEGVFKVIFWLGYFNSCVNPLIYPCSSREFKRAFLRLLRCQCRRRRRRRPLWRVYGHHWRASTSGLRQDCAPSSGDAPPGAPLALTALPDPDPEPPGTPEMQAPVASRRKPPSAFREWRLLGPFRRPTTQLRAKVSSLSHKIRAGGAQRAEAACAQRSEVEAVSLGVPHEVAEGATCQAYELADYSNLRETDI

Tyrosine-protein kinase Lck, sequence (P06239 whole entry): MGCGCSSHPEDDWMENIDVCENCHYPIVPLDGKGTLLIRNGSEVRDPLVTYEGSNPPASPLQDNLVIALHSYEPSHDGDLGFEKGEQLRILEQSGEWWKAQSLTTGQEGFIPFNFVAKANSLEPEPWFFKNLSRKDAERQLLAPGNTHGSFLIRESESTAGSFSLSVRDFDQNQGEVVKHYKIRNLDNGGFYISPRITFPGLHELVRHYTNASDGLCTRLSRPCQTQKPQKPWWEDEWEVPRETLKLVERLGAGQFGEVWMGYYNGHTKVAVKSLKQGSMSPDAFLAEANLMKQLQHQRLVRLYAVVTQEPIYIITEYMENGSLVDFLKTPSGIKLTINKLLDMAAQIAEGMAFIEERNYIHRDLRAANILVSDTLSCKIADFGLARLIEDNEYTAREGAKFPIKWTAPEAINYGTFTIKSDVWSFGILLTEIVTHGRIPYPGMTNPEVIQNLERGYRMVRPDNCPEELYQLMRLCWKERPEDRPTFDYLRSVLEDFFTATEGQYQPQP

In the case of C[C@H]1c2cccc(O)c2C(=O)C2=C(O)[C@]3(O)C(=O)C(C(N)=O)=C(O)[C@@H](N(C)C)[C@@H]3[C@@H](O)[C@@H]21.O [DOXYCYCLINE], the IC50 [1] is reported as “Not Active”, the IC50 [2] is reported as “Not Active” and the IC50 [3] is reported as “Not Active”. The IC50 [4] was “Not Active” and the IC50 ([5]; hek293) was “Not Active”.

O=C(CCCN1CC=C(n2c(=O)[nH]c3ccccc32)CC1)c1ccc(F)cc1 [DROPERIDOL] was tested, and the IC50 [1] was “Not Active”, the IC50 [2] was “Not Active” and the IC50 [3] was “Not Active”. The IC50 [4] was “Not Active”, the IC50 ([5]; read-out: IC50) was 83 nM and the Ki [5] was 41 nM.

In the case of CC(C)[C@H]1C(=O)N2CCC[C@H]2[C@]2(O)O[C@](NC(=O)[C@@H]3C=C4c5cccc6[nH]cc(c56)C[C@H]4N(C)C3)(C(C)C)C(=O)N12 [ERGOCORNINE], the IC50 [1] is reported as “Not Active”, the IC50 [2] is reported as “Not Active” and the IC50 [3] is reported as “Not Active”. The IC50 [4] was “Not Active”, the IC50 ([5]; read-out: IC50) was 18 nM and the Ki [5] was 8.75 nM.

In the case of C[C@]12CC[C@@H]3c4ccc(O)cc4CC[C@H]3[C@@H]1CCC2=O [ESTRONE], the IC50 [1] is reported as “Not Active”, the IC50 [2] is reported as “Not Active” and the IC50 [3] is reported as “Not Active”. The IC50 [4] was “Not Active” and the IC50 ([5]; hek293) was “Not Active”.

OC(Cn1cncn1)(Cn1cncn1)c1ccc(F)cc1F [FLUCONAZOLE] was tested, and the IC50 [1] was “Not Active”, the IC50 [2] was “Not Active” and the IC50 [3] was “Not Active”. For the same compound, the IC50 [4] was “Not Active” and the IC50 ([5]; hek293) was “Not Active”.

For CC(C)C(=O)Nc1ccc([N+](=O)[O-])c(C(F)(F)F)c1 [FLUTAMIDE], the IC50 [1] was “Not Active”, the IC50 [2] was “Not Active” and the IC50 [3] was “Not Active”. For the same compound, the IC50 [4] was “Not Active” and the IC50 ([5]; hek293) was “Not Active”.

N=C(N)NCCN1CCCCCCC1 [GUANETHIDINE] was tested, and the IC50 [1] was “Not Active”, the IC50 [2] was “Not Active” and the IC50 [3] was “Not Active”. For the same compound, the IC50 [4] was “Not Active” and the IC50 ([5]; hek293) was “Not Active”.

With CC1(C)O[C@@H]2C[C@H]3[C@@H]4CCC5=CC(=O)CC[C@]5(C)[C@@]4(F)[C@@H](O)C[C@]3(C)[C@]2(C(=O)CCl)O1 [HALCINONIDE] the IC50 [1] was “Not Active”, the IC50 [2] was “Not Active” and the IC50 [3] was “Not Active”. The IC50 [4] was “Not Active” and the IC50 ([5]; hek293) was “Not Active”.

With O=c1[nH]c(=O)n([C@H]2C[C@H](O)[C@@H](CO)O2)cc1I [IDOXURIDINE] the IC50 [1] was “Not Active”, the IC50 [2] was “Not Active” and the IC50 [3] was “Not Active”. The IC50 [4] was “Not Active” and the IC50 ([5]; hek293) was “Not Active”.

For CC1Cc2ccccc2N1NC(=O)c1ccc(Cl)c(S(N)(=O)=O)c1 (configuration not stated) [INDAPAMIDE], the IC50 [1] was “Not Active”, the IC50 [2] was “Not Active” and the IC50 [3] was “Not Active”. For the same compound, the IC50 [4] was “Not Active” and the IC50 ([5]; hek293) was “Not Active”.

With Nc1nc(N)nc(-c2cc(Cl)ccc2Cl)n1.O=C(O)/C=C\C(=O)O [IRSOGLADINE MALEATE] the IC50 [1] was “Not Active”, the IC50 [2] was “Not Active” and the IC50 [3] was “Not Active”. The IC50 [4] was “Not Active” and the IC50 ([5]; hek293) was “Not Active”.

In the case of CCC(C)n1ncn(-c2ccc(N3CCN(c4ccc(OCC5COC(Cn6cncn6)(c6ccc(Cl)cc6Cl)O5)cc4)CC3)cc2)c1=O (configuration not stated) [ITRACONAZOLE], the IC50 [1] is reported as “Not Active”, the IC50 [2] is reported as “Not Active” and the IC50 [3] is reported as “Not Active”. The IC50 [4] was “Not Active” and the IC50 ([5]; hek293) was “Not Active”.

With CCCCN1CCCC[C@H]1C(=O)Nc1c(C)cccc1C [LEVOBUPIVACAINE] the IC50 [1] was “Not Active”, the IC50 [2] was “Not Active” and the IC50 [3] was “Not Active”. For the same compound, the IC50 [4] was “Not Active” and the IC50 ([5]; hek293) was “Not Active”.

In the case of CCCCc1nc(Cl)c(CO)n1Cc1ccc(-c2ccccc2-c2nnn[nH]2)cc1 [LOSARTAN], the IC50 [1] is reported as “Not Active”, the IC50 [2] is reported as “Not Active” and the IC50 [3] is reported as “Not Active”. The IC50 [4] was “Not Active” and the IC50 ([5]; hek293) was “Not Active”.

With Sc1ncnc2nc[nH]c12 [MERCAPTOPURINE ANHYDROUS] the IC50 [1] was “Not Active”, the IC50 [2] was “Not Active” and the IC50 [3] was “Not Active”. The IC50 [4] was “Not Active” and the IC50 ([5]; hek293) was “Not Active”.
